According to patent EP0013144A1, “Substituted diphenylamine derivatives, compositions and herbicidal uses thereof, and processes for their preparation” (ICI AUSTRALIA LIMITED, priority 1978, dated 1980):

Experiments:
Format in all cases: in vivo
Ipomea = test: Pre-emergence herbicidal activity (Example 31); conditions: after three weeks
Method in brief: (§1)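 Visual damage score at three weeks: 0 = 0–25% damage, 3 = 75–99% kill, 3+ = 100% kill. Soil boxes with seeds sown 2 cm deep were sprayed before emergence with water-diluted emulsifiable concentrate or suspension, then grown in a glasshouse alongside unsprayed controls.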

Japanese millet [1] = test: Pre-emergence herbicidal activity (Example 31); conditions: after three weeks
Method in brief: as §1

Mustard [2] = test: Pre-emergence herbicidal activity (Example 31); conditions: after three weeks
Method in brief: as §1

Sunflower [3] = test: Pre-emergence herbicidal activity (Example 31); conditions: after three weeks
Method in brief: as §1

Japanese millet [4] = test: Post-emergence herbicidal activity (Example 32); conditions: 3 weeks after spraying
Method in brief: (§2)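 Compounds were formulated as emulsifiable concentrates in toluene with surfactants (oils, waxy solids) or ball-milled aqueous suspensions (crystalline solids), then diluted with water. Glasshouse seedlings in soil, grown to about 10 to 12.5 cm, were sprayed. Damage was scored visually after 3 weeks against untreated controls on a 0–3 scale (3+ = 100% kill).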

Mustard [5] = test: Post-emergence herbicidal activity (Example 32); conditions: 3 weeks after spraying
Method in brief: as §2

Ryegrass = test: Post-emergence herbicidal activity (Example 32); conditions: 3 weeks after spraying
Method in brief: as §2

Sunflower [6] = test: Post-emergence herbicidal activity (Example 32); conditions: 3 weeks after spraying
Method in brief: as §2

Maize = test: Pre-emergence herbicidal test, fibre trays (Example 33); design: key: 0 = 0-20% damage, 5 = complete kill, vs untreated control; conditions: 2.0 kg/ha, after 21 days
Experimental: (§3) The compounds were formulated for test by mixing an appropriate amount with 5 ml of an emulsion prepared by diluting 160 ml of a solution containing 21.S g per litre of "Span" 80 and 78.2 g per litre of "Tween" 20 in methylcyclohexanone to 500 ml with water. "Span" 80 is a Trade Mark for a surface-active agent comprising sorbitan monolaurate. "Tween" 20 is a Trade Mark for a surface-active agent comprising a condensate of sorbitan monolaurate with 20 molar proportions of ethylene oxide. Each 5 ml emulsion containing a test compound was'then diluted to 40 ml with water and sprayed on to young pot plants (post-emergence test) of the species named in Table 5 below. Damage to test plants was assessed after 14 days on a scale of 0 to 5 where 0 is 0 to 20% damage and 5 is complete kill. In a test for pre-emergence herbicidal activity, seeds of the test plants were sown in a shallow slit formed in the surface of soil in fibre trays. The surface was then levelled and sprayed, and fresh soil then spread thinly over the sprayed surface. Assessment of herbicidal damage was carried out after 21 days using the same scale of 0 to 5 as the post-emergence test. In both cases the degree of herbicidal damage was assessed by comparison with untreated control plants. A dash (-) means that no experiment was carried out.

Cotton [7] = test: as above; conditions: 2.0 kg/ha, after 21 days
Experimental: as §3

Ipomea purpurea [8] = test: as above; conditions: 2.0 kg/ha, after 21 days
Experimental: as §3

Rape = test: as above; conditions: 2.0 kg/ha, after 21 days
Experimental: as §3

Senecio vulgaris = test: as above; conditions: 2.0 kg/ha, after 21 days
Experimental: as §3

Soy bean [9] = test: as above; conditions: 2.0 kg/ha, after 21 days
Experimental: as §3

Sugar beet [10] = test: as above; conditions: 2.0 kg/ha, after 21 days
Experimental: as §3

Winter wheat [11] = test: as above; conditions: 2.0 kg/ha, after 21 days
Experimental: as §3

Winter wheat [12] = test: Post-emergence herbicidal test, young pot plants (Example 33); design: key: 0 = 0-20% damage, 5 = complete kill, vs untreated control; conditions: 2.0 kg/ha, after 14 days
Experimental: as §3

Amaranthus retroflexus = test: as above; conditions: 2.0 kg/ha, after 14 days
Experimental: as §3

Chenopodium album = test: as above; conditions: 2.0 kg/ha, after 14 days
Experimental: as §3

Cotton [13] = test: as above; conditions: 2.0 kg/ha, after 14 days
Experimental: as §3

Ipomea purpurea [14] = test: as above; conditions: 2.0 kg/ha, after 14 days
Experimental: as §3

Soy bean [15] = test: as above; conditions: 2.0 kg/ha, after 14 days
Experimental: as §3

Sugar beet [16] = test: as above; conditions: 2.0 kg/ha, after 14 days
Experimental: as §3

Row | SMILES | damage to plants, Ip (Ipomea; 1 kg/ha) | damage to plants, Ip (Ipomea; 5 kg/ha) | damage to plants, Jm (Japanese millet [1]; 1 kg/ha) | damage to plants, Jm (Japanese millet [1]; 5 kg/ha) | damage to plants, Ms (Mustard [2]; 1 kg/ha) | damage to plants, Ms (Mustard [2]; 5 kg/ha) | damage to plants, Sf (Sunflower [3]; 1 kg/ha) | damage to plants, Sf (Sunflower [3]; 5 kg/ha) | damage to plants, Jm (Japanese millet [4]; 1 kg/ha) | damage to plants, Jm (Japanese millet [4]; 5 kg/ha) | damage to plants, Ms (Mustard [5]; 1 kg/ha) | damage to plants, Ms (Mustard [5]; 5 kg/ha) | damage to plants, Rg (Ryegrass; 1 kg/ha) | damage to plants, Rg (Ryegrass; 5 kg/ha) | damage to plants, Sf (Sunflower [6]; 1 kg/ha) | damage to plants, Sf (Sunflower [6]; 5 kg/ha) | herbicidal damage, Mz (Maize) | herbicidal damage, Ct (Cotton [7]) | herbicidal damage, Ip (Ipomea purpurea [8]) | herbicidal damage, Rp (Rape) | further results
1 | C#CCN(c1ccc(OC(C)C(=O)OC)cc1)c1ccc(C(F)(F)F)cc1[N+](=O)[O-] (stereo not shown) [Compound 81] | 0 (0 represents from 0 to 25% damage) | 0 (0 represents from 0 to 25% damage) | 3+ (3+ represents 100% kill) | 3+ (3+ represents 100% kill) | 0 (0 represents from 0 to 25% damage) | 0 (0 represents from 0 to 25% damage) | 0 (0 represents from 0 to 25% damage) | 0 (0 represents from 0 to 25% damage) | 3+ (3+ represents 100% kill) | 3+ (3+ represents 100% kill) | 0 (0 represents 0 to 25% damage) | 0 (0 represents 0 to 25% damage) | 3 (3 represents 75 to 99% kill) | 3+ (3+ represents 100% kill) | 0 (0 represents 0 to 25% damage) | 0 (0 represents 0 to 25% damage) | 3 | 0 (0 is 0 to 20% damage) | 0 (0 is 0 to 20% damage) | 0 (0 is 0 to 20% damage) | herbicidal damage, Sn (Senecio vulgaris): 0 (0 is 0 to 20% damage); herbicidal damage, Sy (Soy bean [9]): 0 (0 is 0 to 20% damage); herbicidal damage, Sb (Sugar beet [10]): 0 (0 is 0 to 20% damage); herbicidal damage, Ww (Winter wheat [11]): 4; damage to test plants, Ww (Winter wheat [12]): 4; damage to test plants, Am (Amaranthus retroflexus): 0 (0 is 0 to 20% damage); damage to test plants, Ca (Chenopodium album): 0 (0 is 0 to 20% damage); damage to test plants, Ct (Cotton [13]): 0 (0 is 0 to 20% damage); damage to test plants, Ip (Ipomea purpurea [14]): 0 (0 is 0 to 20% damage); damage to test plants, Sy (Soy bean [15]): 0 (0 is 0 to 20% damage); damage to test plants, Sb (Sugar beet [16]): 3
2 | COC(=O)C(C)Oc1ccc(N(C)c2ccc(Br)cc2[N+](=O)[O-])cc1 (stereo not shown) [Compound 30] | 0 (0 represents from 0 to 25% damage) | 0 (0 represents from 0 to 25% damage) | 1 | 3 (3 represents 75 to 99% kill) | 1 | 2 | 0 (0 represents from 0 to 25% damage) | 0 (0 represents from 0 to 25% damage) | 3+ (3+ represents 100% kill) | 3+ (3+ represents 100% kill) | 0 (0 represents 0 to 25% damage) | 0 (0 represents 0 to 25% damage) | 3+ (3+ represents 100% kill) | 3+ (3+ represents 100% kill) | 0 (0 represents 0 to 25% damage) | 0 (0 represents 0 to 25% damage) | 2 | 0 (0 is 0 to 20% damage) | 0 (0 is 0 to 20% damage) | 0 (0 is 0 to 20% damage) | herbicidal damage, Sn (Senecio vulgaris): 2; herbicidal damage, Sy (Soy bean [9]): 0 (0 is 0 to 20% damage); herbicidal damage, Sb (Sugar beet [10]): 0 (0 is 0 to 20% damage); herbicidal damage, Ww (Winter wheat [11]): 1; damage to test plants, Ww (Winter wheat [12]): 4; damage to test plants, Am (Amaranthus retroflexus): 0 (0 is 0 to 20% damage); damage to test plants, Ca (Chenopodium album): 0 (0 is 0 to 20% damage); damage to test plants, Ct (Cotton [13]): 0 (0 is 0 to 20% damage); damage to test plants, Ip (Ipomea purpurea [14]): 0 (0 is 0 to 20% damage); damage to test plants, Sy (Soy bean [15]): 2; damage to test plants, Sb (Sugar beet [16]): 0 (0 is 0 to 20% damage)
3 | COC(=O)C(C)Oc1ccc(Nc2ccc(Br)cc2[N+](=O)[O-])cc1 (stereo not shown) [Compound 29] | 0 (0 represents from 0 to 25% damage) | 0 (0 represents from 0 to 25% damage) | 2 | 3 (3 represents 75 to 99% kill) | 0 (0 represents from 0 to 25% damage) | 0 (0 represents from 0 to 25% damage) | 0 (0 represents from 0 to 25% damage) | 0 (0 represents from 0 to 25% damage) | 3 (3 represents 75 to 99% kill) | 3+ (3+ represents 100% kill) | 0 (0 represents 0 to 25% damage) | 0 (0 represents 0 to 25% damage) | 3 (3 represents 75 to 99% kill) | 3+ (3+ represents 100% kill) | 0 (0 represents 0 to 25% damage) | 0 (0 represents 0 to 25% damage) | 1 | 0 (0 is 0 to 20% damage) | 0 (0 is 0 to 20% damage) | 0 (0 is 0 to 20% damage) | herbicidal damage, Sn (Senecio vulgaris): 3; herbicidal damage, Sy (Soy bean [9]): 0 (0 is 0 to 20% damage); herbicidal damage, Sb (Sugar beet [10]): 0 (0 is 0 to 20% damage); herbicidal damage, Ww (Winter wheat [11]): 3; damage to test plants, Ww (Winter wheat [12]): 4; damage to test plants, Am (Amaranthus retroflexus): 0 (0 is 0 to 20% damage); damage to test plants, Ca (Chenopodium album): 0 (0 is 0 to 20% damage); damage to test plants, Ct (Cotton [13]): 0 (0 is 0 to 20% damage); damage to test plants, Ip (Ipomea purpurea [14]): 0 (0 is 0 to 20% damage); damage to test plants, Sy (Soy bean [15]): 2; damage to test plants, Sb (Sugar beet [16]): 0 (0 is 0 to 20% damage)
4 | COC(=O)C(C)Oc1ccc(N(C)c2ccc(Cl)cc2[N+](=O)[O-])cc1 (stereo not shown) [Compound 27] | 0 (0 represents from 0 to 25% damage) | 0 (0 represents from 0 to 25% damage) | 1 | 3 (3 represents 75 to 99% kill) | 0 (0 represents from 0 to 25% damage) | 0 (0 represents from 0 to 25% damage) | 0 (0 represents from 0 to 25% damage) | 0 (0 represents from 0 to 25% damage) | 3+ (3+ represents 100% kill) | 3+ (3+ represents 100% kill) | 0 (0 represents 0 to 25% damage) | 0 (0 represents 0 to 25% damage) | 3+ (3+ represents 100% kill) | 3+ (3+ represents 100% kill) | 0 (0 represents 0 to 25% damage) | 0 (0 represents 0 to 25% damage) | 1 | 0 (0 is 0 to 20% damage) | 0 (0 is 0 to 20% damage) | 0 (0 is 0 to 20% damage) | herbicidal damage, Sn (Senecio vulgaris): 1; herbicidal damage, Sy (Soy bean [9]): 0 (0 is 0 to 20% damage); herbicidal damage, Sb (Sugar beet [10]): 0 (0 is 0 to 20% damage); herbicidal damage, Ww (Winter wheat [11]): 1; damage to test plants, Ww (Winter wheat [12]): 4; damage to test plants, Am (Amaranthus retroflexus): 0 (0 is 0 to 20% damage); damage to test plants, Ca (Chenopodium album): 0 (0 is 0 to 20% damage); damage to test plants, Ct (Cotton [13]): 0 (0 is 0 to 20% damage); damage to test plants, Ip (Ipomea purpurea [14]): 0 (0 is 0 to 20% damage); damage to test plants, Sy (Soy bean [15]): 0 (0 is 0 to 20% damage); damage to test plants, Sb (Sugar beet [16]): 0 (0 is 0 to 20% damage)
